# In PMC3624605 (Journal of medicinal chemistry, 2013):
# Tests used:
# [1] = test system: panel of 68 proteases; conditions: 10 μM
# [2] = test system: caspase 3/7 activity of BEAS-2B cells; conditions: 100 nM elastase; 10 μM inhibitor pre-incubation
# [3] = test system: BEAS-2B cells; assay: Cell viability; type: cell-based, human; conditions: for Protection against the antiproliferative effects of elastase: Figure 4C, caspase 3 inhibitor 10 μM pre-incubation
# [4] = test system: BEAS-2B cells; assay: Cell detachment and morphology change; type: cell-based, human; conditions: for Elastase-induced cell rounding (morphology change): 10 μM cotreatment, 3 h
# [5] = target: Human Pancreatic Chymotrypsin (Homo sapiens, UniProt P17538); assay: In vitro protease assay, human pancreatic chymotrypsin; type: biochemical
# Chain of Human Pancreatic Chymotrypsin (P17538 19-263): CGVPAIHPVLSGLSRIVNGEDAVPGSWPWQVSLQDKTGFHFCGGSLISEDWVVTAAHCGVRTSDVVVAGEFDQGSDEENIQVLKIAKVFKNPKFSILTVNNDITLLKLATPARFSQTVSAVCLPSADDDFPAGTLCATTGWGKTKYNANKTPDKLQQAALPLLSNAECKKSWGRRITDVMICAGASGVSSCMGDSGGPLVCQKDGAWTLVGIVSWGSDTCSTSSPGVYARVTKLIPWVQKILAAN
# [6] = test system: IκB degradation and p65 nuclear translocation; conditions: 3 h of cotreatment
# [7] = test system: sICAM-1; conditions: 6 h cotreatment, culture supernatant
# [8] = test system: transcript levels in BEAS-2B cells; conditions: 3 h cotreatment
compound,measurement,setting,value
C/C=C1\NC(=O)[C@@H](NC(=O)[C@H](CCC(N)=O)NC(=O)CCCCC)[C@@H](C)OC(=O)[C@H](C(C)C)NC(=O)[C@H](Cc2ccc(O)cc2)N(C)C(=O)[C@H](Cc2ccccc2)N2C(=O)[C@H](CC[C@H]2O)NC1=O [Lyngbyastatin 7],"Inhibition of the serine proteases elastase, chymotrypsin and proteinase K",[1],completely inhibiting
COC(=O)CC[C@H](NC(=O)[C@H](CC(=O)OC)NC(=O)OCc1ccccc1)C(=O)N[C@H](C(=O)N[C@@H](CC(=O)OC)C(=O)CF)C(C)C,Effect on elastase-induced increase in caspase activation,[2],abrogated
same,Protection against the antiproliferative effects of elastase,[3],partially protected
CC(C)(C)C(=O)Oc1ccc(S(=O)(=O)Nc2ccccc2C(=O)NCC(=O)O)cc1 [Sivelestat],Elastase-induced cell rounding (morphology change),[4],prevented this effect of elastase
same,Concentration showing cytoprotective effect against cell detachment,[4]; 12 h,100 µM
same,IC50,[5],> 10 µM
same,Protection against the antiproliferative effects of elastase,[3],partially protected
same,Concentration required to completely negate elastase-induced cytotoxicity,"[3]; elastase co-treatment, 24 h",100 µM
elastase: exogenous elastase used to challenge BEAS-2B cells,IC50,"[3]; read-out: Antiproliferative IC50 of elastase (MTT), BEAS-2B, 24 h",77.5 ± 4.9 nM
"C/C=C1\NC(=O)[C@@H](NC(=O)[C@@H](NC(=O)[C@@H](COS(=O)(=O)[O-])OC)C(C)C)[C@@H](C)OC(=O)[C@H]([C@H](C)CC)NC(=O)[C@H](Cc2ccccc2)N(C)C(=O)[C@H](Cc2ccccc2)N2C(=O)[C@H](CC[C@H]2O)NC1=O.[Na+] [Symplostatin 5 (1), Symplostatin 5]",Elastase-induced cell rounding (morphology change),[4],prevented this effect of elastase
same,Elastase-induced IκB degradation and p65 nuclear translocation,[6],dose-dependently inhibited
same,Effect on proliferation of BEAS-2B cells,"[3]; up to 100 μM, with solvent control or 100 nM elastase, 24 h",did not significantly affect the proliferation
same,Concentration that decreased elastase-induced sICAM-1 level,[7],≥ 1 µM
same,Elastase-induced increase in IL1B transcript levels (RT-qPCR),[8],strongly abrogated
